From ChEMBL document CHEMBL1201862, “PubChem BioAssay data set” (2004)
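Dose response: 5 concentrations. Exposure: 48 h. Format: 96-well plates. Endpoint: linear interpolation; highest concentration if not reached. GI50 is the concentration that inhibits growth by half.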 The source made the active and inactive calls. Rule as the data show it: active = GI50 up to about 1.1 µM and inactive = higher. *1 amine or outer side, *2 acyl side, *3 side chain or, on linkers, in order; H or OH if unused. Where a SMILES comes first, the peptide text is derived from it. Bridges are numbered along the chain shown (N, C = ends). Roman numbers before positions name the chains, in order. [ ]: non-standard residue; d: D form. Actinocin(9to1) = Cc1c2oc3c(C)ccc(C(=O)[*:1])c3nc-2c(C(=O)[*:2])c(N)c1=O; NMeV = CN[CH](C(=O)O)C(C)C; Sar = CNCC(=O)O

How the values were obtained:
Experiment in all cases: growth of human tumour cells (NCI), 48 h
HOP-92 = tested on: HOP-92
HCT-116 = tested on: HCT-116
Hs-578T = tested on: Hs-578T
EKVX = tested on: EKVX
SF-268 = tested on: SF-268
SF-295 = tested on: SF-295
COLO 205 = tested on: COLO 205
OVCAR-3 = tested on: OVCAR-3
HL-60 = tested on: HL-60
SNB-75 = tested on: SNB-75
M14 = tested on: M14
LOX IMVI = tested on: LOX IMVI
SNB-19 = tested on: SNB-19
PC-3 = tested on: PC-3
A549 = tested on: A549
K562 = tested on: K562
OVCAR-5 = tested on: OVCAR-5
CAKI-1 = tested on: CAKI-1
MOLT-4 = tested on: MOLT-4
MCF7 = tested on: MCF7

Row | SMILES | GI50 (HOP-92) | GI50 (HCT-116) | GI50 (Hs-578T) | GI50 (EKVX) | GI50 (SF-268) | GI50 (SF-295) | GI50 (COLO 205) | GI50 (OVCAR-3) | GI50 (HL-60) | GI50 (SNB-75) | GI50 (M14) | GI50 (LOX IMVI) | GI50 (SNB-19) | GI50 (PC-3) | GI50 (A549) | GI50 (K562) | GI50 (OVCAR-5) | GI50 (CAKI-1) | GI50 (MOLT-4) | GI50 (MCF7)
1 | Cc1c2oc3c(C)ccc(C(=O)NC4C(=O)NC(C(C)C)C(=O)N5CCCC5C(=O)N(C)CC(=O)N(C)C(C(C)C)C(=O)OC4C)c3nc-2c(C(=O)NC2C(=O)NC(C(C)C)C(=O)N3CCCC3C(=O)N(C)CC(=O)N(C)C(C(C)C)C(=O)OC2C)c(N)c1=O (stereo not given) (I: TVP[Sar][NMeV] / II: TVP[Sar][NMeV]; ester I:1-I:C, II:1-II:C; linker I:N-II:N via Actinocin(9to1); configuration not given here) | 0.00177 µM (active) | < 0.0001 µM (active) | 0.000143 µM (active) | 0.00416 µM (active) | < 0.0001 µM (active) | 0.000522 µM (active) | 0.000161 µM (active) | 0.00105 µM (active) | 0.00017 µM (active) | < 0.0001 µM (active) | 0.00256 µM (active) | < 0.0001 µM (active) | 0.000112 µM (active) | 0.000428 µM (active) | 0.000199 µM (active) | < 0.0001 µM (active) | 0.00181 µM (active) | 0.00224 µM (active) | < 0.0001 µM (active) | < 0.0001 µM (active)
2 | O=C1CCCc2cc3c(cc21)CC1(C3)Cc2ccc3c(c2C1)C(=O)CCC3 (stereo not given) | 21.3 µM (inactive) | 12.2 µM (inactive) | 65.6 µM (inactive) | 46.7 µM (inactive) | 21.9 µM (inactive) | 18.5 µM (inactive) | 14.4 µM (inactive) | 15.9 µM (inactive) | 5.18 µM (inactive) | 15.5 µM (inactive) | 12.7 µM (inactive) | 11.7 µM (inactive) | 67.6 µM (inactive) | 21.7 µM (inactive) | 21.1 µM (inactive) | 3.31 µM (inactive) | > 100 µM (inactive) | 10.5 µM (inactive) | 4.12 µM (inactive) | 12.2 µM (inactive)
3 | O=C1c2ccccc2-c2c1c1ccccc1c(=O)n2-c1cccnc1 | 8.17 µM (inactive) | 27.3 µM (inactive) | 37 µM (inactive) | > 44.2 µM (inactive) | 29.5 µM (inactive) | 27 µM (inactive) | > 68.1 µM (inactive) | > 71.3 µM (inactive) | > 10 µM (inactive) | 49.1 µM (inactive) | > 100 µM (inactive) | 32.1 µM (inactive) | 24.6 µM (inactive) | > 54.3 µM (inactive) | 11.5 µM (inactive) | > 60.3 µM (inactive) | > 100 µM (inactive) | 35.3 µM (inactive) | 3.78 µM (inactive) | 22.5 µM (inactive)
4 | COc1cc(OCc2nc3ccccc3n3cccc23)cc(OC)c1OC | 10 µM (inactive) | 17.5 µM (inactive) | 52.6 µM (inactive) | 14.8 µM (inactive) | 41.9 µM (inactive) | 11.3 µM (inactive) | 16.8 µM (inactive) | 15 µM (inactive) | 9.35 µM (inactive) | > 93.5 µM (inactive) | 20.7 µM (inactive) | 22.2 µM (inactive) | > 51.1 µM (inactive) | 30.3 µM (inactive) | 20.3 µM (inactive) | 3.86 µM (inactive) | > 52 µM (inactive) | 29.7 µM (inactive) | 2.37 µM (inactive) | 3.61 µM (inactive)
